Test results reported in patent publication US12258338B2, “Modulators of the integrated stress response pathway” (EVOTEC INTERNATIONAL GMBH, priority 2019, dated 2025).
In brackets after ≈: the same amount, converted by molar mass. Where two headings read alike, the source gives them in different places.

Columns and labels:
[1] = tested on: ATF4; assay: HEK-ATF4 High Content Imaging assay (prevention of Tunicamycin induced ISR; ATF4 signal ratio between nucleus and cytoplasm); format: cell-based; conditions: Homo sapiens; Wild-type HEK293 cells, Tunicamycin induced ISR, 6 h; read-out: IIEK-ATF4 Activity
How it was run: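 Wild-type HEK293 cells in 0.3% FBS medium were co-treated with compounds and Tunicamycin (3.3 μM in prediluted medium, 11-fold over final) for 6 h at 37 °C. Fixed cells were immunostained for ATF4 with Hoechst nuclei; imaging gave nuclear/cytoplasmic ATF4 ratio, with nuclei counts as toxicity control.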

[2] = Thermodynamic (Equilibrium) solubility in selected buffer; format: physicochemical; conditions: Table 25; for solubility: aqueous buffer, thermodynamic from solid
Experimental: Protocol—Thermodynamic (Equilibrium) Solubility in Selected Buffer
Example compounds were tested in the Thermodynamic (Equilibrium) solubility in selected buffer assay. The test compound, in powder form, was weighted into a 4 mL glass vial and a calculated volume of selected medium was added to reach the target concentration of the solubility test (1 mg/mL). The solution was then stirred overnight at r.t. protected from the light. The solution was filtered through a 0.45 μm PTFE membrane at ambient temperature. An aliquot of the resulting filtrate was quantified using UPLC-UV method described below against a reference solution of the test compound, 0.8 mg/mL in DMSO. Media compositions: Phosphate buffer 50 mM (pH=2.0) […] of NaH2PO4, H2O in 200 mL of ultrapurified water adjusted at pH 2 with phosphoric acid 85%; Acetate buffer 50 mM (pH=5.5) 820 mg of anhydrous sodium acetate in 200 mL of ultrapurified water adjusted at pH 5.5 with acetic acid 99.8%; Phosphate buffer 50 mM (pH=7.4) 40.5 mL of Na2HPO4 0.1 M solution+9.5 mL of NaH2PO4 0.1 M solution. Analytical conditions: UPLC-UV-MS analyses were performed with a Waters Acquity UPLC HClass-PDA-QDa system using a reverse phase Acquity BEH C18 column (2.1 mm×50 mm, 1.7 μm; temperature: 40° C.) and a gradient of 10-95% B (A=0.1% formic acid in H2O; B=0.05% formic acid in ACN) over 1.8 min then 100% B for 0.8 min, with an injection volume of 0.4 μL at flow rate of 0.65 mL/min. UV chromatograms were recorded at 220 nm, 254 nm and 290 nm using a photo diode array detector. Mass spectra were recorded in the 150 to 900 M/Z range at a sampling rate of 10 scans per sec using a QDa detector. Data were integrated using Empower®3 software. Data Analysis: Equilibrium solubility of the test compound in the selected medium was calculated through the ratio of the surface area of the UV chromatographic peak of the compound in the filtrate to the surface of the UV chromatographic peak of the compound in the reference solution.

[3] = target: T1, human ERG potassium channel (hERG) (Homo sapiens, UniProt Q12809); assay: hERG channel tail current recording using in vitro Rapid ICE (automated patch-clamp, QPatch HTX); format: cell-based; conditions: Table 26
T1 construct: expressed in transfected cells; host or cells: HEK293, stably transfected, tetracycline-inducible promoter
T1 sequence (Q12809 whole entry): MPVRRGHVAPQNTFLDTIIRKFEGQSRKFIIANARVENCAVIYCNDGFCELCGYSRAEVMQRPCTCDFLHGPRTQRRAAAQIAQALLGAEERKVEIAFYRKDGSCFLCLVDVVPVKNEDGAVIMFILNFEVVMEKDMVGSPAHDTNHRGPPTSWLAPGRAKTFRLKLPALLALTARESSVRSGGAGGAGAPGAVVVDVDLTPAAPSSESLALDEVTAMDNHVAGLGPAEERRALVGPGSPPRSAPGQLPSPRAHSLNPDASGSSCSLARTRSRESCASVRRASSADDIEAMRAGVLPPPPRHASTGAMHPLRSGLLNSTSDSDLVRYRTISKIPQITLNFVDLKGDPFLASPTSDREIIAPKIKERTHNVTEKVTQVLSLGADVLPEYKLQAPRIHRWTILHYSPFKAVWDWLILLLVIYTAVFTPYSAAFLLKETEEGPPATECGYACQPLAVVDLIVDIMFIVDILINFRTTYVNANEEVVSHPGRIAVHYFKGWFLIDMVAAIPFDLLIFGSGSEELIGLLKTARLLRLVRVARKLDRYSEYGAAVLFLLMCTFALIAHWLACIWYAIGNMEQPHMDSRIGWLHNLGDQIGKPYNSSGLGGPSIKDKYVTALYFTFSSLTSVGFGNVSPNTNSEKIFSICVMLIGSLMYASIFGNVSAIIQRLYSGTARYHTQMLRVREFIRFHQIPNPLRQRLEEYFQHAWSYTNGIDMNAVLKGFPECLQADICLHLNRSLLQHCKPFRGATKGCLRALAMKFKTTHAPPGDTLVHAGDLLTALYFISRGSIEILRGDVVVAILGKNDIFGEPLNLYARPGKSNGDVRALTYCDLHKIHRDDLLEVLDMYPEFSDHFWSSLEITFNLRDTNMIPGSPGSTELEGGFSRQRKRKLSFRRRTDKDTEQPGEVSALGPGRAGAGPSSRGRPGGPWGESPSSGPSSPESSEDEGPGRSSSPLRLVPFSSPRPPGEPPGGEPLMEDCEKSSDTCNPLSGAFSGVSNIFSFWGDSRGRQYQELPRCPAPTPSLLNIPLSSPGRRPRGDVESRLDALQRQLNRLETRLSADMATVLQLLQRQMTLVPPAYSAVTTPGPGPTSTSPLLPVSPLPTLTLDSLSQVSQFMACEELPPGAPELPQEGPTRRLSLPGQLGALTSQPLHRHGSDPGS
How it was run: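 Automated patch clamp on tetracycline-induced HEK293 hERG cells; pulse −80 to −50 mV 200 ms, +20 mV 4.8 s, −50 mV 5 s tail, extracellular pH 7.4. Compound at 0.3, 3, 30 μM (0.3% DMSO), 5 min exposure; tail current versus vehicle gives % inhibition and estimated IC50.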

[4] = acetate buffer 50 mM, pH 5.5, read-out: Solubility (μg/mL) pH 5.5
[5] = phosphate buffer 50 mM, pH 7.4, read-out: Solubility (μg/mL) pH 7.4
[6] = phosphate buffer 50 mM, pH 2.0, read-out: Solubility (μg/mL) pH 2.0

| SMILES | IC50 [1] [nM] | solubility [2, 4] [µg/mL] | Solubility (μg/mL) pH 2.0 ([2]; pH 2.0) | solubility [2, 5] [µg/mL] | IC50 [3] [nM] | solubility [2, 6] [µg/mL] |
| --- | --- | --- | --- | --- | --- | --- |
| O=C(COc1ccc(Cl)c(F)c1)N[C@H]1CC[C@H](c2nnc(N3CC(C(F)(F)F)C3)o2)NC1 [Example 90, 2-(4-chloro-3-fluorophenoxy)-N-[(3S,6R)-6-{5-[3-(trifluoromethyl)azetidin-1-yl]-1,3,4-oxadiazol-2-yl}piperidin-3-yl]acetamide] | 500 to 2000 | 294 (≈ 615 µM) | quant.^# | 173 (≈ 362 µM) | > 5000 |  |
| O=C(COc1ccc(C(F)(F)F)nc1)N[C@H]1CC[C@H](c2nnc(OCCOC(F)(F)F)o2)NC1 [Example 14, N-[(3S,6R)-6-{5-[2-(trifluoromethoxy)ethoxy]-1,3,4-oxadiazol-2-yl}piperidin-3-yl]-2-{[6-(trifluoromethyl)pyridin-3-yl]oxy}acetamide] | 500 to 2000 | 814 (≈ 1630 µM) |  | 606 (≈ 1210 µM) | > 5000 | 616 (≈ 1230 µM) |
| O=C(COc1ccc(Cl)c(F)c1)N[C@H]1CC[C@H](c2nnc(N3CC[C@H](OC(F)(F)F)C3)o2)NC1 (single isomer, unassigned) [Example 110] | 1 to 500 | 256 (≈ 504 µM) |  | 132 (≈ 260 µM) | > 5000 | 982 (≈ 1930 µM) |
| O=C(COc1ccc(Cl)c(F)c1)N[C@H]1CC[C@H](c2nnc(-c3ccc(C(F)(F)F)nc3)o2)NC1 [Example 52, 2-(4-chloro-3-fluorophenoxy)-N-[(3S,6R)-6-{5-[6-(trifluoromethyl)pyridin-3-yl]-1,3,4-oxadiazol-2-yl}piperidin-3-yl]acetamide] | 1 to 500 | 9 (≈ 18 µM) |  | 7 (≈ 14 µM) | 1 to 1000 | 839 (≈ 1680 µM) |
| O=C(COc1ccc(Cl)c(Cl)c1)N[C@H]1CC[C@H](c2nnc(OCCOC(F)(F)F)o2)NC1 [Example 85, 2-(3,4-dichlorophenoxy)-N-[(3S,6R)-6-{5-[2-(trifluoromethoxy)ethoxy]-1,3,4-oxadiazol-2-yl}piperidin-3-yl]acetamide] | 1 to 500 | 9 (≈ 18 µM) |  | 6 (≈ 12 µM) | 1000 to 5000 | 918 (≈ 1840 µM) |
| CC(F)(F)CCCOc1nnc([C@H]2CC[C@H](NC(=O)COc3ccc(Cl)c(F)c3)CN2)o1 [Example 84, 2-(4-chloro-3-fluorophenoxy)-N-[(3S,6R)-6-{5-[(4,4-difluoropentyl)oxy]-1,3,4-oxadiazol-2-yl}piperidin-3-yl]acetamide] | 1 to 500 | 93 (≈ 195 µM) |  | 62 (≈ 130 µM) | 1000 to 5000 | 717 (≈ 1500 µM) |
| O=C(COc1ccc(C(F)(F)F)cc1)N[C@H]1CC[C@H](c2nnc(OCCOC(F)(F)F)o2)NC1 [Example 112, N-[(3S,6R)-6-{5-[2-(trifluoromethoxy)ethoxy]-1,3,4-oxadiazol-2-yl}piperidin-3-yl]-2-[4-(trifluoromethyl)phenoxy]acetamide] | 1 to 500 | 97 (≈ 195 µM) |  | 67 (≈ 134 µM) | > 5000 | 812 (≈ 1630 µM) |
| O=C(COc1ccc(Cl)c(F)c1)N[C@H]1CC[C@H](c2nnc(OC3CCC(F)(F)C3)o2)NC1 (stereo partly drawn) [Example 68, 2-(4-chloro-3-fluorophenoxy)-N-[(3S,6R)-6-{5-[(3,3-difluorocyclopentyl)oxy]-1,3,4-oxadiazol-2-yl}piperidin-3-yl]acetamide] | 2000 to 15000 | 168 (≈ 354 µM) |  | 102 (≈ 215 µM) | 1000 to 5000 | 909 (≈ 1910 µM) |
| O=C(COc1ccc(Cl)c(F)c1)N[C@H]1CC[C@H](c2nnc(N3CC[C@@H](OC(F)(F)F)C3)o2)NC1 (single isomer, unassigned) [Example 111] | 1 to 500 | 9 (≈ 17.7 µM) |  | 6 (≈ 11.8 µM) | 1000 to 5000 | 911 (≈ 1790 µM) |
| Cc1cc(OCC(=O)N[C@H]2CC[C@H](c3nnc(OCCOC(F)(F)F)o3)NC2)ccc1Cl [Example 12, 2-(4-chloro-3-methylphenoxy)-N-[(3S,6R)-6-{5-[2-(trifluoromethoxy)ethoxy]-1,3,4-oxadiazol-2-yl}piperidin-3-yl]acetamide] | 1 to 500 | 113 (≈ 236 µM) |  | 105 (≈ 219 µM) | > 5000 | 651 (≈ 1360 µM) |
| O=C(COc1ccc(Cl)c(F)c1)N[C@H]1CC[C@H](c2noc([C@H]3C[C@@H](OC(F)(F)F)C3)n2)NC1 [Example 98, 2-(4-chloro-3-fluorophenoxy)-N-[(3S,6R)-6-{5-[(1s,3s)-3-(trifluoromethoxy)cyclobutyl]-1,2,4-oxadiazol-3-yl}piperidin-3-yl]acetamide] | 1 to 500 | 61 (≈ 124 µM) | quant.^# | 17 (≈ 34.5 µM) | 1000 to 5000 |  |
| Cc1ccc(OCC(=O)N[C@H]2CC[C@H](c3nnc(OCCOC(F)(F)F)o3)NC2)cc1C [Example 13, 2-(3,4-dimethylphenoxy)-N-[(3S,6R)-6-{5-[2-(trifluoromethoxy)ethoxy]-1,3,4-oxadiazol-2-yl}piperidin-3-yl]acetamide] | 1 to 500 | 318 (≈ 694 µM) |  | 240 (≈ 524 µM) | > 5000 | 661 (≈ 1440 µM) |
| O=C(COc1ccc(Cl)c(F)c1)N[C@H]1CC[C@H](c2nnc(C3CN(CC(F)(F)F)C3)o2)NC1 [Example 57, 2-(4-chloro-3-fluorophenoxy)-N-[(3S,6R)-6-{5-[1-(2,2,2-trifluoroethyl)azetidin-3-yl]-1,3,4-oxadiazol-2-yl}piperidin-3-yl]acetamide] | 500 to 2000 | 663 (≈ 1350 µM) | quant.^# | 501 (≈ 1020 µM) | > 5000 |  |
| O=C(COc1ccc(Cl)c(Cl)c1)N[C@H]1CC[C@H](c2nnc([C@H]3C[C@@H](OC(F)F)C3)o2)NC1 [Example 60, 2-(3,4-dichlorophenoxy)-N-[(3S,6R)-6-(5-[(1s,3s)-3-(difluoromethoxy)cyclobutyl]-1,3,4-oxadiazol-2-yl}piperidin-3-yl]acetamide] | 1 to 500 | 47 (≈ 95.7 µM) |  | 91 (≈ 185 µM) | 1 to 1000 | 886 (≈ 1800 µM) |
| O=C(COc1ccc(Cl)c(C(F)F)c1)N[C@H]1CC[C@H](c2nnc(OCCOC(F)(F)F)o2)NC1 [Example 11, 2-[4-chloro-3-(difluoromethyl)phenoxy]-N-[(3S,6R)-6-{5-[2-(trifluoromethoxy)ethoxy]-1,3,4-oxadiazol-2-yl}piperidin-3-yl]acetamide] | 1 to 500 | 60 (≈ 117 µM) |  | 42 (≈ 81.6 µM) | > 5000 | 617 (≈ 1200 µM) |
| O=C(COc1ccc(Cl)c(F)c1)N[C@H]1CC[C@H](c2nnc(OCCOC(F)(F)F)o2)NC1 [Example 77, 2-(4-chloro-3-fluorophenoxy)-N-[(3S,6R)-6-{5-[2-(trifluoromethoxy)ethoxy]-1,3,4-oxadiazol-2-yl}piperidin-3-yl]acetamide] | 1 to 500 | 98 (≈ 203 µM) |  | 76 (≈ 157 µM) | 1000 to 5000 | 810 (≈ 1680 µM) |
